Assay [1] has as its system S. aureus UBMS 88-7 (tetK). The assay can be described thus: microbe, parasite or virus in culture. The assay is classed as cell-based. The conditions noted are these: Staphylococcus aureus, 18 h. The method, then: (§1) Method for In Vitro Antibacterial Evaluation (Table I)
(§2) The minimum inhibitory concentration (MIC), the lowest concentration of the antibiotic which inhibits growth of the test organism, is determined by the agar dilution method using Muller-Hinton II agar (Baltimore Biological Laboratories). An inoculum density of 1-5×10^5 CFU/ml and an antibiotic concentration (32-≤0.015 μg/ml) is used. The plates are incubated for 18 hours at 35° C. in a forced air incubator. The test organisms comprise strains sensitive to tetracycline and genetically defined strains that are resistant to tetracycline, due to inability to bind bacterial ribosomes (tetM).

Assay [2] concerns S. aureus UBMS 90-2 (tetM). The assay can be described thus: microbe, parasite or virus in culture. The assay is classed as cell-based. The conditions noted are these: Staphylococcus aureus, 18 h. Here is the method:
as §1, §2

In assay [3] the test system is S. aureus UBMS 88-5 (tetM). Kind of assay: microbe, parasite or virus in culture. Conditions: Staphylococcus aureus, 18 h. The assay is classed as cell-based. Here is the method: as §1, §2
Assay [4] relates to S. aureus UBMS 90-1 (tetM). The assay can be described thus: microbe, parasite or virus in culture. The assay is classed as cell-based. The conditions noted are these: Staphylococcus aureus, 18 h. Here is the method: as §1, §2
In assay [5] the test system is E. coli UBMS 88-1 (tetB). The assay can be described thus: microbe, parasite or virus in culture. Conditions: Escherichia coli, 18 h. The assay is classed as cell-based. The method, then:
as §1, §2

Assay [6] concerns E. coli UBMS 89-1 (tetM). Kind of assay: microbe, parasite or virus in culture. The assay is classed as cell-based. The conditions noted are these: Escherichia coli, 18 h. The method, then:
as §1, §2

Assay [7] deals with Staphylococcus aureus strain Smith (tetracycline sensitive). Kind of assay: In vivo antibacterial evaluation, acute lethal infection in mice. The conditions noted are these: 168 h, female mice CD-1, intraperitoneal challenge with S. aureus Smith, dosed subcutaneously or orally 30 minutes after infection, 7 day survival ratios. Here is the method:
In Vivo Antibacterial Evaluation (Table III)
The therapeutic effects of tetracyclines are determined against an acute lethal infection with Staphylococcus aureus strain Smith (tetracycline sensitive). Female, mice, strain CD-1 (Charles River Laboratories), 20±2 grams, are challenged by an intraperitoneal injection of sufficient bacteria (suspended in hog mucin) to kill non-treated controls within 24-48 hours. Antibacterial agents, contained in 0.5 ml of 0.2% aqueous agar, are administered subcutaneously or orally 30 minutes after infection. When an oral dosing schedule is used, animals are deprived of food for 5 hours before and 2 hours after infection. Five mice are treated at each dose level. The 7 day survival ratios from 3 separate tests are pooled for calculation of median effective dose (ED50).

Assay [8] has as its system E. coli ATCC 25922. The assay can be described thus: In vitro antibacterial evaluation, MIC by agar dilution. The assay is classed as cell-based. The conditions noted are these: Escherichia coli. Here is the method:
as §1, §2
Background: In agar dilution the substance is mixed into plates at graded concentrations.

Assay [9] deals with S. aureus ATCC 29213 (sensitive). The description is as above. Type of assay: cell-based. The conditions noted are these: Staphylococcus aureus, ATCC29213; agar dilution, Muller-Hinton II agar, 18 hours at 35° C.; S. aureus ATCC 29213 (sensitive); read-out: MIC. Here is the method:
as §1, §2

Assay [10] has as its system S. aureus UBMS 90-3 (sensitive). Described as above. Type of assay: cell-based. Conditions: Staphylococcus aureus; agar dilution, Muller-Hinton II agar, 18 hours at 35° C.; S. aureus UBMS 90-3 (sensitive); read-out: MIC. The method, then:
as §1, §2

Assay [11] relates to S. aureus SMITH (MP) (sensitive). The description is as above. Type of assay: cell-based. The conditions noted are these: Staphylococcus aureus; agar dilution, Muller-Hinton II agar, 18 hours at 35° C.; S. aureus SMITH (MP) (sensitive); read-out: MIC. The method, then: as §1, §2
Assay [12] deals with E. coli UBMS 88-2 (sensitive). The description is as above. Conditions: Escherichia coli, 18 h. The assay is classed as cell-based. The method, then: as §1, §2
Assay [13] concerns S. haemol. AVAH 88-3. Described as above. The assay is classed as cell-based. Here is the method: as §1, §2
Assay [14] deals with Enteroc. spp. 12201. Described as above. The assay is classed as cell-based. The method, then: as §1, §2
For assay [15], the system named is S. aureus IVES 1983 (MP) (meth. resistant). The description is as above. The conditions noted are these: Staphylococcus aureus. Type of assay: cell-based. Here is the method: as §1, §2
For assay [16], the system named is S. faecal. ATCC 29212. The assay is described as above. Type of assay: cell-based. Here is the method: as §1, §2
The subject of assay [17] is E. coli UBMS 89-2 (sensitive). Described as above. Conditions: Escherichia coli, Muller-Hinton II agar, 18 hours at 35° C. Type of assay: cell-based. Here is the method:
as §1, §2

Assay [18] relates to S. aureus UBMS 88-4 (sensitive). The assay is described as above. The assay is classed as cell-based. The conditions noted are these: Staphylococcus aureus. The method, then:
as §1, §2

The test system of assay [19] is S. aureus IVES 2943 (meth. resistant). Described as above. Type of assay: cell-based. The conditions noted are these: Staphylococcus aureus, 18 h. Here is the method:
as §1, §2

In assay [20] the test system is tetracycline sensitive and resistant Gram-positive and Gram-negative bacteria. Kind of assay: In vitro antibacterial activity, summary statements of the testing results. Type of assay: cell-based. Here is the method: as §1, §2
Assay [21] deals with S30 extract from E. coli strain MRE 600 (tetracycline sensitive). The assay can be described thus: E. coli in vitro cell free protein translation system, Wild Type S30. Type of assay: biochemical. Conditions: for % Inhibition Wild Type S30: 35S-methionine incorporation, 30 minutes at 37° C. From the text: (§3) E. coli in Vitro protein Translation System (Table II)
(§4) An in vitro, cell free, protein translation system using extracts from E. coli strain MRE 600 (tetracycline sensitive) and a derivative of MRE 600 containing the tetM determinant has been developed based on literature methods J. M. Pratt, Coupled Transcription-translation in Prokaryotic Cell-free Systems, Transcription and Translation, a Practical Approach, (B. D. Hames and S. J. Higgins, eds) p. 179-209, IRL Press, Oxford-Washington, 1984!.
(§5) Using the system described above, the tetracycline compounds of the present invention are tested for their ability to inhibit protein synthesis in vitro. Briefly, each 10 μl reaction contains S30 extract (a whole extract) made from either tetracycline sensitive cells or an isogenic tetracycline resistant (tetM) strain, low molecular weight components necessary for transcription and translation (i.e., ATP and GTP), a mix of 19 amino acids (no methionine), ^35 S labeled methionine, DNA template (either pBR322 or pUC119), and either DMSO (control) or the novel tetracycline compound to be tested ("novel TC") dissolved in DMSO.
(§6) The reactions are incubated for 30 minutes at 37° C. Timing is initiated with the addition of the S30 extract, the last component to be added. After 30 minutes, 2.5 μl of the reaction is removed and mixed with 0.5 ml of 1N NaOH to destroy RNA and tRNA. Two to three ml of 25% trichloroacetic acid is added and the mixture incubated at room temperature for 15 minutes. The trichloroacetic acid precipitated material is collected on Whatman GF/C filters and washed with a solution of 10% trichloroacetic acid. The filters are dried and the retained radioactivity, representing incorporation of ^35 S-methionine into polypeptides, is counted using standard liquid scintillation methods.
(§7) The percent inhibition (P.I.) of protein synthesis is determined to be: [formula]

The subject of assay [22] is S30 extract from derivative of E. coli MRE 600 containing the tetM determinant. The assay can be described thus: E. coli in vitro cell free protein translation system, TetM S30. The conditions noted are these: cell-free extracts from strain MRE600 (tetM). The assay is classed as biochemical.
Description: as §3, §4, §5, §6, §7

Setting [23] is: ATCC25922, agar dilution, Muller-Hinton II agar, 18 hours at 35° C., E. coli ATCC 25922, read-out: MIC.
Setting [24] is: agar dilution, Muller-Hinton II agar, 18 hours at 35° C., Enteroc. spp. 12201, read-out: MIC.
Where [25] appears, read: agar dilution, Muller-Hinton II agar, 18 hours at 35° C., S. aureus IVES 1983 (MP) (meth. resistant), read-out: MIC.
Setting [26] is: agar dilution, Muller-Hinton II agar, 18 hours at 35° C., S. faecal. ATCC 29212, read-out: MIC.

Structures can show the parent of a compound that is named as a salt. Where two headings read alike, the source gives them in different places. Bounds are passed on as bounds.

For `CN(C)[C@@H]1C(O)=C(C(N)=O)C(=O)[C@@]2(O)C(O)=C3C(=O)c4c(cc(Cl)c(NN)c4O)CC3CC12` (stereo partly drawn) [J, 4S-(4alpha, 12aalpha)!-8-Chloro-4-(dimethylamino)-9-hydrazino-1,4,4a,5,5a,6-11,12a-octahydro-3,10,12,12a-tetrahydroxy-1,11-dioxo-2-naphthacenecarboxamide monohydrochloride], the MIC was found to be 1 µg/mL in [1]; 0.5 µg/mL in [2]; 0.5 µg/mL in assay [3]; 0.5 µg/mL in assay [4]; 32 µg/mL in assay [5]; 16 µg/mL in [6]. For the same compound, the MIC in assay [8] (setting [23]) is 1 µg/mL; in assay [9], no more than 0.015 µg/mL; in assay [10], 0.03 µg/mL; in assay [11] it was 0.03 µg/mL; in assay [12], 2 µg/mL; in assay [13] (agar dilution, Muller-Hinton II agar, 18 hours at 35° C., S. haemol. AVAH 88-3, read-out: MIC) it was 0.25 µg/mL. In addition, the MIC is 0.05 µg/mL in assay [14] (setting [24]); 2 µg/mL in assay [15] (setting [25]); 0.5 µg/mL in assay [16] (setting [26]); 4 µg/mL in [17]; 0.06 µg/mL in [18] (18 h). The ED50 (commonly the midpoint of the dose-response relation) in assay [7] is greater than 16 mg/kg.

In the case of `CN(C)c1c(Cl)cc(O)c2c1CC1CC3[C@H](N(C)C)C(O)=C(C(N)=O)C(=O)[C@@]3(O)C(O)=C1C2=O` (stereo partly shown) [B, 8-Chloro-4,7-bis(dimethylamino)-1,4,4a,5-5a,6,11,12a-octahydro-3,10,12,12a-tetrahydroxy-1,11-dioxo-2-naphthacenecarboxamide sulfate], the MIC in assay [1] was 0.5 µg/mL; in [2], 0.5 µg/mL; in assay [3] it was 0.5 µg/mL; in assay [4] it was 0.05 µg/mL; in [5] it was greater than 32 µg/mL; in assay [6] it was greater than 32 µg/mL. The MIC was 8 µg/mL in [8] (ATCC25922, 18 h); no more than 0.015 µg/mL in [9]; 0.06 µg/mL in [10]; 0.06 µg/mL in assay [11]; 8 µg/mL in assay [12]; 0.25 µg/mL in assay [13] (18 h). The MIC in assay [14] (18 h) was determined as 1 µg/mL; in assay [19], 1 µg/mL; in assay [15] (18 h), 1 µg/mL; in [16] (18 h), 1 µg/mL; in assay [17], 16 µg/mL; in assay [18] (18 h), 0.03 µg/mL. In addition, the ED50 in assay [7] was greater than 16 mg/kg.

In the case of `CN(C)[C@@H]1C(O)=C(C(N)=O)C(=O)[C@@]2(O)C(O)=C3C(=O)c4c(cc(Cl)c(NC=O)c4O)CC3CC12` (stereo partly shown) [A, 8-Chloro-4-(dimethylamino)-9-(formylamino)-1,4,4a,5,5a,6,11,12a-octahydro-3,10,12,12a-tetrahydroxy-1,11-dioxo-2-naphthacenecarboxamide hydrochloride or sulfate], the MIC is 16 µg/mL in [1]; 0.03 µg/mL in [2]; 0.12 µg/mL in [3]; 0.25 µg/mL in assay [4]; 32 µg/mL in assay [5]; 0.12 µg/mL in assay [8] (setting [23]). Moreover, the MIC in assay [9] was less than 0.015 µg/mL; in assay [10], less than 0.015 µg/mL; in [11], less than 0.015 µg/mL; in assay [12], 0.12 µg/mL; in assay [14] (setting [24]), 0.5 µg/mL; in [15] (setting [25]), 32 µg/mL. The MIC in [16] (setting [26]) is less than 0.015 µg/mL; in assay [17], 0.25 µg/mL; in assay [18] (agar dilution, Muller-Hinton II agar, 18 hours at 35° C., S. aureus UBMS 88-4 (sensitive), read-out: MIC), less than 0.015 µg/mL. Further, in [20] (tetracycline resistant strains containing tetM (S. aureus UBMS 88-5, 90-1 and 90-2)), the “in vitro activity, in words” value is reported as “good in vitro activity”. Moreover, the “in vitro activity compared with minocycline, in words” value in assay [20] (tetracycline susceptible strains) was “equally as effective as minocycline”. Further, the “% Inhibition Wild Type S30” value in assay [21] (Conc. 0.3 mg/ml) was 98%; in [21] (Conc. 1.0) it was 93%. The “inhibition of protein synthesis, in words” value in assay [21] (cell-free extracts from tetracycline susceptible strain MRE600) and in assay [22] was “effectively inhibited” each time.
